# Measurements from ChEMBL document CHEMBL1201862, “PubChem BioAssay data set” (2004).
#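 Assay format: 96-well plates, 48-hour exposure. GI50: concentration for 50% inhibition of growth.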 Active and inactive are the calls of the source. Cut-off read from the data, not from the text of the source: active = GI50 up to about 1.1 µM and inactive = higher.
# What was measured:
# Assay in all cases: NCI anticancer screen, dose series, 48 h
# COLO 205 = tested on: COLO 205
# UACC-257 = tested on: UACC-257
# UO-31 = tested on: UO-31
# SW-620 = tested on: SW-620
# MDA-MB-231 = tested on: MDA-MB-231
# HL-60 = tested on: HL-60
# A549 = tested on: A549
# NCI-H522 = tested on: NCI-H522
# NCI-H226 = tested on: NCI-H226
# RPMI-8226 = tested on: RPMI-8226
# MOLT-4 = tested on: MOLT-4
# A498 = tested on: A498
# Malme-3M = tested on: Malme-3M
# TK-10 = tested on: TK-10
# UACC-62 = tested on: UACC-62
# 786-0 = tested on: 786-0
# OVCAR-4 = tested on: OVCAR-4
# OVCAR-5 = tested on: OVCAR-5
# Hs-578T = tested on: Hs-578T
# ACHN = tested on: ACHN
Compound,GI50 (COLO 205),GI50 (UACC-257),GI50 (UO-31),GI50 (SW-620),GI50 (MDA-MB-231),GI50 (HL-60),GI50 (A549),GI50 (NCI-H522),GI50 (NCI-H226),GI50 (RPMI-8226),GI50 (MOLT-4),GI50 (A498),GI50 (Malme-3M),GI50 (TK-10),GI50 (UACC-62),GI50 (786-0),GI50 (OVCAR-4),GI50 (OVCAR-5),GI50 (Hs-578T),GI50 (ACHN)
Cc1cc2c(=Cc3ccc(N(C)C)cc3)c3ccccc3n2[n+]1C,0.164 µM (active),0.207 µM (active),3.01 µM (inactive),1.21 µM (inactive),0.847 µM (active),1.39 µM (inactive),0.632 µM (active),0.335 µM (active),1.01 µM (active),0.107 µM (active),0.282 µM (active),1.87 µM (inactive),1.08 µM (active),1.3 µM (inactive),1.4 µM (inactive),0.607 µM (active),0.641 µM (active),5.87 µM (inactive),0.628 µM (active),2.23 µM (inactive)
O=C1OC(C2Cc3ccc4c(c3C2=O)CCCC4)c2ccccc21 (stereo not given),46.8 µM (inactive),52.2 µM (inactive),50 µM (inactive),29.7 µM (inactive),36.2 µM (inactive),71.3 µM (inactive),35.9 µM (inactive),48.4 µM (inactive),20.6 µM (inactive),42.5 µM (inactive),16.8 µM (inactive),16.8 µM (inactive),24 µM (inactive),73.5 µM (inactive),23.7 µM (inactive),50.8 µM (inactive),24.8 µM (inactive),> 100 µM (inactive),18 µM (inactive),44.6 µM (inactive)
C=C1C(=O)O[C@@H]2C[C@@]3(C)CCC[C@H](C)C3=C[C@H]12 [HELENINE],1.73 µM (inactive),7.21 µM (inactive),4.95 µM (inactive),3.83 µM (inactive),14.2 µM (inactive),1.98 µM (inactive),16.1 µM (inactive),3.18 µM (inactive),15.7 µM (inactive),1.76 µM (inactive),1.62 µM (inactive),12.4 µM (inactive),3.95 µM (inactive),2.77 µM (inactive),6.46 µM (inactive),3.53 µM (inactive),4.49 µM (inactive),17.5 µM (inactive),4.99 µM (inactive),10 µM (inactive)
